Drawing on article PMC12344758, “Qsarna: An Online Tool for Smart Chemical Space Navigation in Drug Design” (Journal of Chemical Information and Modeling, 2025), this text covers inhibition and IC50 for 18 compounds.

The target in one assay is T1, MAO-B (Homo sapiens, UniProt P27338).
T1 construct: purchased Merck MAK296
T1 sequence (P27338 1-520): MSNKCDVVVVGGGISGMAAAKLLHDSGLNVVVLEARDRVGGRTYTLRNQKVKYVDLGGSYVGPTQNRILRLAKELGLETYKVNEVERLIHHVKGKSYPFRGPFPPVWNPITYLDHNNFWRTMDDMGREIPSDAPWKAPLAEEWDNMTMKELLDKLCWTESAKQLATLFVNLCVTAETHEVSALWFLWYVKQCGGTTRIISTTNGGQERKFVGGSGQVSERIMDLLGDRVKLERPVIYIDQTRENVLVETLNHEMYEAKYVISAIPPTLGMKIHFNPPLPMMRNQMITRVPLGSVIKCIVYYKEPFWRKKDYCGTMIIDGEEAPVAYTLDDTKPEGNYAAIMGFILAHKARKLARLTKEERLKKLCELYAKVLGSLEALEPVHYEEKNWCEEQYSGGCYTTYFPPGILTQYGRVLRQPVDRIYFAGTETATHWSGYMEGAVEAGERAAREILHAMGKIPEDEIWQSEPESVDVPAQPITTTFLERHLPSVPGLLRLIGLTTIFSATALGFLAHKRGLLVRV
Nature of the assay: Monoamine Oxidase-B Inhibitor Screening Kit (Merck, MAK296), fluorometric assay. The class given is biochemical. The settings on record: for inhibition at 1 µM: concentration 1 uM; for inhibition at 10 µM: concentration 10 uM; for inhibition at 100 µM: concentration 100 uM; for IC50: secondary screen, 10 concentrations from 100 µM, duplicate. The protocol:
(§1) The experimental details for determining IC50 are presented in Supporting Information B.
(§2) To evaluate the IC50 of inhibitors, two fluorometric assays were used: the Monoamine Oxidase-A Inhibitor Screening Kit and the Monoamine Oxidase-B Inhibitor Screening Kit (Merck), according to the manufacturer’s protocol. The Echo dose-response software was used to prepare the plates. The compounds were tested at 10 concentrations, starting from 100 µM with a dilution factor of 3.16. All compounds were tested in duplicate in a final concentration of 1% of DMSO. Using a Mantis Liquid Dispenser (Formulatrix), 12.5 µL of protein was added to each tested compound (final concentration of 56 nM) and incubated for 60 minutes at 25°C (MAO-A) or 60 minutes at 37°C (MAO-B). Subsequently, the enzymatic reaction was initiated by adding 10 µL of substrate per well, followed by incubation for 60 minutes at 25°C (MAO-A) or 60 minutes at 37°C (MAO-B). The fluorescence intensity was measured using a plate reader (BioTek Synergy H1) with the following settings: excitation at 535 nm and emission at 587 nm. The data were normalized against low control (assay buffer […]
(§3) (1 picture or pasted object on this page, not shown here) […]
(§4) containing substrate) and high control (protein and substrate). The results were presented as a percentage of inhibition. […]

For another assay, the target named is T2, MAO-A (Homo sapiens, UniProt P21397).
T2 construct: purchased Merck MAK295
T2 sequence (P21397 1-527): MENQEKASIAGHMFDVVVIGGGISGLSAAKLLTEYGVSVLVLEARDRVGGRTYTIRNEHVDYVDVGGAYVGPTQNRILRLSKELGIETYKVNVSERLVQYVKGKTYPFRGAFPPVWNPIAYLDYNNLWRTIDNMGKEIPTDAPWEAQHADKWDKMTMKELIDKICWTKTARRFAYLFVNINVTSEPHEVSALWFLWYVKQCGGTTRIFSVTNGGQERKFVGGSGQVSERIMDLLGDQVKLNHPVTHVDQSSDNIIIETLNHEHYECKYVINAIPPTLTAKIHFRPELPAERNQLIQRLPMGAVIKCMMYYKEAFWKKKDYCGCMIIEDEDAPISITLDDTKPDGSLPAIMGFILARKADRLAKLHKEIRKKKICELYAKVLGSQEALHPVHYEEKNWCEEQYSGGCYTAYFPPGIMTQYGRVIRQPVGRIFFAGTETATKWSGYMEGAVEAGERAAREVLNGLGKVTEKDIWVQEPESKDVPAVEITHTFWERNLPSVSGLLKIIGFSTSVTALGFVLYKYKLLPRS
Nature of the assay: Monoamine Oxidase-A Inhibitor Screening Kit (Merck, MAK295), fluorometric assay. It is filed as biochemical. The settings on record: for inhibition at 1 µM: concentration 1 uM; for inhibition at 10 µM: concentration 10 uM; for inhibition at 100 µM: concentration 100 uM; for IC50: secondary screen, 10 concentrations from 100 µM, duplicate. The protocol:
as §1, §2, §3, §4

For `Cc1c(-c2ccccc2)c(=O)oc2cc(OS(=O)(=O)c3ccc(Br)cc3)ccc12` [MolPort-000-479-802], on MAO-B, the inhibition at 1 µM was 0%, the inhibition at 10 µM turned out to be 0% and the inhibition at 100 µM was 27.3%. On MAO-A, the inhibition at 1 µM amounted to 1.21%, the inhibition at 10 µM came out at 5.32% and the inhibition at 100 µM turned out to be 25.6%.

For `CC(=O)NCC1CN(c2ccc(N3CCOCC3)c(F)c2)C(=O)O1` (stereo not shown) [MolPort-002-744-025], at MAO-B, the inhibition at 1 µM is 59%, the inhibition at 10 µM came to 81%, the inhibition at 100 µM was found to be 97.3% and the IC50 was found to be 460 nM. Also, on MAO-A, the inhibition at 1 µM came to 4.19%, the inhibition at 10 µM worked out at 0% and the inhibition at 100 µM is 43.5%.

As for `O=C(Nc1ccc(Cl)cc1)C1=Cc2ccccc2OC1` [MolPort-000-686-585], at MAO-B, the inhibition at 1 µM worked out at 0%, the inhibition at 10 µM amounted to 51.7%, the inhibition at 100 µM is 91.2% and the IC50 stood at 10300 nM. Besides, at MAO-A, the inhibition at 1 µM is 0%, the inhibition at 10 µM came to 0% and the inhibition at 100 µM is 0%.

`COc1ccc(C2SCC(=O)N2NC(=O)COc2ccc3c(C)cc(=O)oc3c2)cc1` (stereo not shown) [MolPort-002-546-020]: on MAO-B, the inhibition at 1 µM came to 0%, the inhibition at 10 µM came to 0% and the inhibition at 100 µM came out at 46.3%. In addition, on MAO-A, the inhibition at 1 µM was determined as 0%, the inhibition at 10 µM was 0% and the inhibition at 100 µM is 0%.

Consider `CC(=O)Nc1ccc2c(c1)-c1ccccc1C2=O` [MolPort-001-824-101], for which, on MAO-B, the inhibition at 1 µM was found to be 0%, the inhibition at 10 µM was determined as 0% and the inhibition at 100 µM came out at 27.7%. On MAO-A, the inhibition at 1 µM was determined as 80.5%, the inhibition at 10 µM turned out to be 93.7%, the inhibition at 100 µM was determined as 97.8% and the IC50 was found to be 600 nM.

Regarding `O=c1c(-c2ccccc2)coc2cc(O)cc(O)c12` [MolPort-003-665-835], at MAO-B, the inhibition at 1 µM was determined as 0%, the inhibition at 10 µM came to 39.8%, the inhibition at 100 µM is 87.3% and the IC50 was found to be 2830 nM. At MAO-A, the inhibition at 1 µM turned out to be 0%, the inhibition at 10 µM worked out at 0% and the inhibition at 100 µM was 0%.

Turning to `Cc1nnc2c(Cc3ccccc3)nc3ccccc3n12` [Molport-002-872-748], on MAO-B, the inhibition at 1 µM turned out to be 0%, the inhibition at 10 µM was determined as 0% and the inhibition at 100 µM was determined as 0%. Besides, on MAO-A, the inhibition at 1 µM came out at 0%, the inhibition at 10 µM is 0% and the inhibition at 100 µM is 0%.

As for `O=c1oc2cc(OCc3cccc(Cl)c3)ccc2c2c1CCC2` [MolPort-000-651-742], at MAO-B, the inhibition at 1 µM is 91.3%, the inhibition at 10 µM was 98.4%, the inhibition at 100 µM stood at 98% and the IC50 was 9.76 nM. Besides, at MAO-A, the inhibition at 1 µM came out at 4.35%, the inhibition at 10 µM worked out at 0% and the inhibition at 100 µM is 0%.

As for `CCc1ccc(Nc2ncc3c(n2)CC(C)CC3=O)cc1` (stereo not shown) [MolPort-000-511-281], at MAO-B, the inhibition at 1 µM amounted to 40%, the inhibition at 10 µM was found to be 83.7%, the inhibition at 100 µM was found to be 96.4% and the IC50 is 66.1 nM. Moreover, on MAO-A, the inhibition at 1 µM came out at 0%, the inhibition at 10 µM amounted to 0% and the inhibition at 100 µM turned out to be 0%.

Consider `Clc1ccc(/C=N/c2ccc3[nH]ncc3c2)c(Cl)c1` [MolPort-002-945-866], for which, on MAO-B, the inhibition at 1 µM was found to be 0%, the inhibition at 10 µM came out at 32.5%, the inhibition at 100 µM came out at 84.4% and the IC50 was 32400 nM. On MAO-A, the inhibition at 1 µM came out at 7.2%, the inhibition at 10 µM was 26.1% and the inhibition at 100 µM stood at 7.8%.

In the case of `Cc1cc(=O)oc2c(C)c(OCc3nnc(S)n3-c3ccc(Br)cc3)ccc12` [MolPort-002-847-536], at MAO-B, the inhibition at 1 µM is 11.9%, the inhibition at 10 µM turned out to be 30.3%, the inhibition at 100 µM is 105% and the IC50 came to 2320 nM. Further, on MAO-A, the inhibition at 1 µM turned out to be 0%, the inhibition at 10 µM turned out to be 17.7%, the inhibition at 100 µM is 84.1% and the IC50 was found to be 31900 nM.

Regarding `O=C(Cn1c(=O)oc2ccccc21)Nc1nnc(SCc2ccccc2)s1` [MolPort-001-610-534], at MAO-B, the inhibition at 1 µM worked out at 0%, the inhibition at 10 µM was determined as 0% and the inhibition at 100 µM stood at 0%. Besides, at MAO-A, the inhibition at 1 µM came out at 0%, the inhibition at 10 µM was 0% and the inhibition at 100 µM is 15.7%.

Take `Cc1csc(N/N=C/c2cc(Cl)ccc2Cl)n1` [MolPort-000-660-156]: on MAO-B, the inhibition at 1 µM was 3.45%, the inhibition at 10 µM was found to be 0.34% and the inhibition at 100 µM is 39.5%. Further, at MAO-A, the inhibition at 1 µM was 10.8%, the inhibition at 10 µM came out at 24.3% and the inhibition at 100 µM was found to be 46.7%.

Turning to `Cc1ccc(/C=N/Nc2nc3ccccc3nc2Cc2ccccc2)cc1` [Molport-002-863-179], at MAO-B, the inhibition at 1 µM came out at 0%, the inhibition at 10 µM was found to be 0% and the inhibition at 100 µM is 0%. On MAO-A, the inhibition at 1 µM was determined as 0%, the inhibition at 10 µM turned out to be 0% and the inhibition at 100 µM was 0%.

As to `Fc1ccc(-c2ccc3c(c2)[nH]c2ccncc23)cn1` [MolPort-044-831-708], at MAO-B, the inhibition at 1 µM came out at 5.64%, the inhibition at 10 µM stood at 37.9%, the inhibition at 100 µM amounted to 81.3% and the IC50 is 11900 nM. On MAO-A, the inhibition at 10 µM was found to be 16.5%, the inhibition at 100 µM was 84.2% and the IC50 was 23600 nM.

Regarding `Cc1nc(Nc2ncc3c(n2)CC(C)CC3=O)nc2ccccc12` (stereo not shown) [MolPort-000-510-622], at MAO-B, the inhibition at 1 µM worked out at 0%, the inhibition at 10 µM was determined as 21% and the inhibition at 100 µM turned out to be 77.5%. In addition, at MAO-A, the inhibition at 1 µM was found to be 0%, the inhibition at 10 µM turned out to be 0% and the inhibition at 100 µM was 0%.

Consider `Cc1cc(=O)oc2cc(OCC(=O)N/N=C/c3ccccc3)ccc12` [MolPort-002-548-000], for which, on MAO-B, the inhibition at 1 µM came to 0%, the inhibition at 10 µM came out at 0% and the inhibition at 100 µM turned out to be 0%. On MAO-A, the inhibition at 1 µM is 0%, the inhibition at 10 µM was found to be 0% and the inhibition at 100 µM was 0%.

As to `COc1ccc(C2=NN(C(C)=O)C(c3ccccc3)C2)c(O)c1` (stereo not shown) [MolPort-000-773-355], on MAO-B, the inhibition at 1 µM stood at 0%, the inhibition at 10 µM came to 0% and the inhibition at 100 µM was 0%. Further, on MAO-A, the inhibition at 1 µM was found to be 0%, the inhibition at 10 µM was 0% and the inhibition at 100 µM amounted to 0%.

As a reminder, the inhibition is the change of the read-out against control, counted positive when it falls. By IC50 is commonly meant the point on the concentration scale where inhibition reaches its midpoint.
